Data from US8735384B2, “Amino heteroaryl compounds as beta-secretase modulators and methods of use” (Amgen Inc., priority 2010, dated 2014).
pIC50: −log10 of the molar value.

What was measured:
BACE1 = BACE1 (Homo sapiens, UniProt P56817); experiment: In vitro enzymatic BACE FRET assay; assay type: biochemical; details: beta secretase enzyme 0.2 nM, FRET substrate 50 nM, pH 4.2; read-out: BACE1 FRET assay (IC50 class)
Method in brief: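 Beta-secretase (0.2 nM) was pre-incubated 1 h with serially diluted inhibitor in 0.05 M acetate pH 4.2, 10% DMSO, 100 uM genapol. Then 50 nM quenched peptide FRET substrate was added for 1 h. The reaction was stopped with Tris to neutral pH and fluorescence read ([…]).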

[1] = system: Aβ40 in conditioned medium of cells stably expressing Amyloid Precursor Protein (APP); experiment: In vitro BACE cell-based assay (HEK cell assay), Aβ40 sandwich ELISA; details: Homo sapiens, HEK293, 24 h, inhibition of Aβ40, 24 h incubation, read-out: HEK cell assay (IC50 class)
Method in brief: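 APP-stably expressing cells (40K/well) grown 24 h, then treated 24 h with 10-point doses from 100 μM or 10 μM top (0.1% DMSO). Secreted Aβ40 quantified by sandwich ELISA (pAb40 capture, biotinylated 6E10 detection, europium time-resolved fluorescence); IC50 from percent inhibition versus concentration.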

Sequence of BACE1 (P56817 46-501, species assumed): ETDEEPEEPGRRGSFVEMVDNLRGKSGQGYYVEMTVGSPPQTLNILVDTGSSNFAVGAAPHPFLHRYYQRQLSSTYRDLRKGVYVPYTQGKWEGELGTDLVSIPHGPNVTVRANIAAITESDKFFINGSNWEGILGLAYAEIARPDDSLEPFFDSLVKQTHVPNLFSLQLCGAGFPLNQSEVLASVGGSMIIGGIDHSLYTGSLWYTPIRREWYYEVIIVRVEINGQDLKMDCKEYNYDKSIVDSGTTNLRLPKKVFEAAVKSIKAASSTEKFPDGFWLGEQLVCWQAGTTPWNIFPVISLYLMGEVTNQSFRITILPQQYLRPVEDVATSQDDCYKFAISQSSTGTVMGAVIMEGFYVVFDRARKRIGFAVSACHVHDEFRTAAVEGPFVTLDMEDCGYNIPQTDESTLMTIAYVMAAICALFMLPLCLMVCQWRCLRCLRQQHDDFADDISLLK

| Structure (SMILES) | pIC50 (BACE1) | pIC50 [1] |
| --- | --- | --- |
| Cc1cccc(CCC(C)(C)C)c1-c1ccc2nc(N)c(N3CCOCC3)cc2c1 [Example 172, 6-(2-(3,3-dimethylbutyl)-6-methylphenyl)-3-morpholinoquinolin-2-amine] | > 7.00 | 5.30 to 6.00 |
| COc1ccc(C(=O)c2cccc(C)c2-c2ccc3nc(N)c(N4CCOCC4)cc3c2)cc1 [Example 175, (2-(2-amino-3-morpholinoquinolin-6-yl)-3-methylphenyl)(4-methoxyphenyl)methanone] | > 7.00 | 5.30 to 6.00 |
| CC(C)(C)CC(=O)c1cccc(C(=O)N2CCCC2)c1-c1ccc2nc(N)c(N3CCOCC3)cc2c1 [Example 46, 1-(2-(2-amino-3-morpholinoquinolin-6-yl)-3-(pyrrolidine-1-carbonyl)phenyl)-3,3-dimethylbutan-1-one] | > 7.00 | 6.30 to 7.00 |
| Cc1cccc(C(N)c2ccccc2)c1-c1ccc2nc(N)c(N3CCOCC3)cc2c1 (stereo not shown) [Example 17, 6-(2-(amino(phenyl)methyl)-6-methylphenyl)-3-morpholinoquinolin-2-amine] | > 7.00 | > 7.00 |
| COc1ccccc1C(=N)c1cccc(C)c1-c1ccc2nc(N)c(N3C[C@@H]4C[C@H]3CO4)cc2c1 [Example 188, 3-((1S,4S)-2-oxa-5-azabicyclo[2.2.1]heptan-5-yl)-6-(2-(imino(2-methoxyphenyl)methyl)-6-methylphenyl)quinolin-2-amine] | 6.30 to 7.00 | 6.00 to 6.30 |
| COCCC1CCN(C(=O)c2cccc(C)c2-c2ccc3nc(N)c(N4CCOCC4)cc3c2)CC1 [Example 75, (2-(2-amino-3-morpholinoquinolin-6-yl)-3-methylphenyl)(4-(2-methoxyethyl)piperidin-1-yl)methanone] | 6.30 to 7.00 | 5.30 to 6.00 |
| Cc1cccc(C(=O)N2CCCC2C(C)C)c1-c1ccc2nc(N)c(N3CCOCC3)cc2c1 (stereo not shown) [Example 66, (2-(2-amino-3-morpholinoquinolin-6-yl)-3-methylphenyl)(2-isopropylpyrrolidin-1-yl)methanone] | > 7.00 | 6.30 to 7.00 |
| Cc1cccc(N2CC(C)(C)OCC2=O)c1-c1ccc2nc(N)c(N3CCOCC3)cc2c1 [Example 49, 4-(2-(2-amino-3-morpholinoquinolin-6-yl)-3-methylphenyl)-6,6-dimethylmorpholin-3-one] | 6.30 to 7.00 | 5.30 to 6.00 |

The next lines start with the values.

| pIC50 (BACE1) | pIC50 [1] | Structure (SMILES) |
| --- | --- | --- |
| 6.30 to 7.00 | 5.30 to 6.00 | Cc1cccc(C(=O)N2CCOCC2)c1-c1ccc2nc(N)c(N3CCOCC3)cc2c1 [Example 59, (2-(2-amino-3-morpholinoquinolin-6-yl)-3-methylphenyl)(morpholino)methanone] |
| > 7.00 | 6.30 to 7.00 | Cc1cccc(C(=O)N2CC[C@@H](F)C2)c1-c1ccc2nc(N)c(N3CCOCC3)cc2c1 [Example 69, (R)-(2-(2-amino-3-morpholinoquinolin-6-yl)-3-methylphenyl)(3-fluoropyrrolidin-1-yl)methanone] |
| 6.30 to 7.00 | 5.30 to 6.00 | COC1CCCN(C(=O)c2cccc(C)c2-c2ccc3nc(N)c(N4CCOCC4)cc3c2)C1 (stereo not shown) [Example 82, (2-(2-amino-3-morpholinoquinolin-6-yl)-3-methylphenyl)(3-methoxypiperidin-1-yl)methanone] |
| > 7.00 | 6.00 to 6.30 | Cc1cccc(C(=O)N2CCCC2)c1-c1cc2cc(N3CCOCC3)c(N)nc2cc1F [Example 39, (2-(2-amino-7-fluoro-3-morpholinoquinolin-6-yl)-3-methylphenyl)(pyrrolidin-1-yl)methanone] |
| 5.30 to 6.00 | < 5.30 | Nc1nc2ccc(-c3ccc(F)cc3C(=O)N3CCC3)cc2cc1N1CCOCC1 [Example 128, (2-(2-amino-3-morpholinoquinolin-6-yl)-5-fluorophenyl)(azetidin-1-yl)methanone] |
| > 7.00 | 6.00 to 6.30 | Cc1cccc(C(=O)N2CCC(F)(F)CC2)c1-c1ccc2nc(N)c(N3CCOCC3)cc2c1 [Example 109, (2-(2-amino-3-morpholinoquinolin-6-yl)-3-methylphenyl)(4,4-difluoropiperidin-1-yl)methanone] |
